Measured values as given in ChEMBL document CHEMBL1687752, “Impact of antifungal prophylaxis on colonization and azole susceptibility of Candida species” (2009).
≈ marks a conversion by molar mass, not a printed value.

What follows are compounds tested on Candida albicans (assay: Antifungal activity against Candida albicans isolated from HSCT recipients with acute or chronic GVHD prior to initiation of posaconazole therapy by broth microdilution method). Settings: not given.
Assay type: functional

SMILES | MIC50 [µg/mL] | MIC90 [µg/mL]
OC(Cn1cncn1)(Cn1cncn1)c1ccc(F)cc1F [FLUCONAZOLE] | 0.25 (≈ 0.816 µM) | 4 (≈ 13.1 µM)

The compounds below were run on Nakaseomyces glabratus (assay: Antifungal activity against Candida glabrata isolated from HSCT recipients with acute or chronic GVHD receiving fluconazole assessed as maximum MIC by broth microdilution method). Settings: not given.
Assay type: functional

SMILES | MIC [µg/mL]
OC(Cn1cncn1)(Cn1cncn1)c1ccc(F)cc1F [FLUCONAZOLE] | 64

These compounds were tested on Nakaseomyces glabratus (assay: Antifungal activity against Candida glabrata isolated from HSCT recipients with acute or chronic GVHD receiving posaconazole by broth microdilution method). Settings: not given.
Assay type: functional

SMILES | MIC50 [µg/mL] | MIC90 [µg/mL]
OC(Cn1cncn1)(Cn1cncn1)c1ccc(F)cc1F [FLUCONAZOLE] | 64 (≈ 209 µM) | 64 (≈ 209 µM)

Each compound was assayed on Nakaseomyces glabratus (assay: Antifungal activity against Candida glabrata isolated from neutropenic subject 1497 with AML or MDS pharynx after 61 days prophylaxis by broth microdilution method). Settings: not given.
Assay type: functional

SMILES | MIC [µg/mL]
OC(Cn1cncn1)(Cn1cncn1)c1ccc(F)cc1F [FLUCONAZOLE] | 2 (≈ 6.53 µM)

The compounds below were run on Candida albicans (assay: Antifungal activity against Candida albicans isolated from HSCT recipient 262 with acute or chronic GVHD mouth after 115 days prophylaxis by broth microdilution method). Settings: not given.
Assay type: functional

SMILES | MIC [µg/mL]
OC(Cn1cncn1)(Cn1cncn1)c1ccc(F)cc1F [FLUCONAZOLE] | 0.25 (≈ 0.816 µM)

These compounds were tested on Nakaseomyces glabratus (assay: Antifungal activity against Candida glabrata isolated from neutropenic subject 1318 with AML or MDS stool after 36 days prophylaxis by broth microdilution method). Settings: not given.
Assay type: functional

SMILES | MIC [µg/mL]
OC(Cn1cncn1)(Cn1cncn1)c1ccc(F)cc1F [FLUCONAZOLE] | 4 (≈ 13.1 µM)

What follows are compounds tested on Candida albicans (assay: Antifungal activity against Candida albicans isolated from HSCT recipient 042 with acute or chronic GVHD mouth after 112 days prophylaxis by broth microdilution method). Settings: not given.
Assay type: functional

SMILES | MIC [µg/mL]
OC(Cn1cncn1)(Cn1cncn1)c1ccc(F)cc1F [FLUCONAZOLE] | < 0.125

These compounds were tested on Nakaseomyces glabratus (assay: Antifungal activity against 60 days cultured Candida glabrata isolated from HSCT recipient with acute or chronic GVHD mouth receiving antifungal therapy for 75 days after 33 days of prophylaxis by broth microdilution method). Settings: not given.
Assay type: functional

SMILES | MIC [µg/mL]
OC(Cn1cncn1)(Cn1cncn1)c1ccc(F)cc1F [FLUCONAZOLE] | > 64

Each compound was assayed on Nakaseomyces glabratus (assay: Antifungal activity against 1 day cultured Candida glabrata isolated from HSCT recipient with acute or chronic GVHD mouth after 17 days of prophylaxis by broth microdilution method). Settings: not given.
Assay type: functional

SMILES | MIC [µg/mL]
OC(Cn1cncn1)(Cn1cncn1)c1ccc(F)cc1F [FLUCONAZOLE] | > 64

These compounds were tested on Candida albicans (assay: Antifungal activity against Candida albicans isolated from neutropenic subjects with AML or MDS receiving posaconazole by broth microdilution method). Settings: not given.
Assay type: functional

SMILES | MIC50 [µg/mL] | MIC90 [µg/mL]
OC(Cn1cncn1)(Cn1cncn1)c1ccc(F)cc1F [FLUCONAZOLE] | 0.25 (≈ 0.816 µM) | 0.25 (≈ 0.816 µM)

These compounds were tested on Nakaseomyces glabratus (assay: Antifungal activity against Candida glabrata isolated from neutropenic subject 1318 with AML or MDS stool receiving antifungal drug after 36 days prophylaxis by broth microdilution method). Settings: not given.
Assay type: functional

SMILES | MIC [µg/mL]
OC(Cn1cncn1)(Cn1cncn1)c1ccc(F)cc1F [FLUCONAZOLE] | > 64

What follows are compounds tested on Nakaseomyces glabratus (assay: Antifungal activity against 10 days cultured Candida glabrata isolated from neutropenic subject with AML or MDS stool receiving antifungal therapy for 37 days after 9 days of prophylaxis by broth microdilution method). Settings: not given.
Assay type: functional

SMILES | MIC [µg/mL]
OC(Cn1cncn1)(Cn1cncn1)c1ccc(F)cc1F [FLUCONAZOLE] | 8 (≈ 26.1 µM)

What follows are compounds tested on Nakaseomyces glabratus (assay: Antifungal activity against Candida glabrata isolated from neutropenic subjects with AML or MDS prior to initiation of posaconazole therapy by broth microdilution method). Settings: not given.
Assay type: functional

SMILES | MIC50 [µg/mL] | MIC90 [µg/mL]
OC(Cn1cncn1)(Cn1cncn1)c1ccc(F)cc1F [FLUCONAZOLE] | 4 (≈ 13.1 µM) | 16 (≈ 52.2 µM)

These compounds were tested on Candida albicans (assay: Antifungal activity against 1 day cultured Candida albicans isolated from HSCT recipient with acute or chronic GVHD mouth after 2 days of prophylaxis by broth microdilution method). Settings: not given.
Assay type: functional

SMILES | MIC [µg/mL]
OC(Cn1cncn1)(Cn1cncn1)c1ccc(F)cc1F [FLUCONAZOLE] | < 0.12

The compounds below were run on Nakaseomyces glabratus (assay: Antifungal activity against Candida glabrata isolated from neutropenic subject 1497 with AML or MDS pharynx receiving antifungal drug after 61 days prophylaxis by broth microdilution method). Settings: not given.
Assay type: functional

SMILES | MIC [µg/mL]
OC(Cn1cncn1)(Cn1cncn1)c1ccc(F)cc1F [FLUCONAZOLE] | > 64

These compounds were tested on Nakaseomyces glabratus (assay: Antifungal activity against Candida glabrata isolated from HSCT recipient 270 with acute or chronic GVHD mouth after 108 days prophylaxis by broth microdilution method). Settings: not given.
Assay type: functional

SMILES | MIC [µg/mL]
OC(Cn1cncn1)(Cn1cncn1)c1ccc(F)cc1F [FLUCONAZOLE] | 8 (≈ 26.1 µM)

What follows are compounds tested on Nakaseomyces glabratus (assay: Antifungal activity against Candida glabrata isolated from HSCT recipient 807 with acute or chronic GVHD mouth receiving antifungal drug after 114 days prophylaxis by broth microdilution method). Settings: not given.
Assay type: functional

SMILES | MIC [µg/mL]
OC(Cn1cncn1)(Cn1cncn1)c1ccc(F)cc1F [FLUCONAZOLE] | 128 (≈ 418 µM)

Each compound was assayed on Nakaseomyces glabratus (assay: Antifungal activity against 15 days cultured Candida glabrata isolated from HSCT recipient with acute or chronic GVHD mouth receiving antifungal therapy for 168 days after 113 days of prophylaxis by broth microdilution method). Settings: not given.
Assay type: functional

SMILES | MIC [µg/mL]
OC(Cn1cncn1)(Cn1cncn1)c1ccc(F)cc1F [FLUCONAZOLE] | 64 (≈ 209 µM)

Each compound was assayed on Nakaseomyces glabratus (assay: Antifungal activity against Candida glabrata isolated from HSCT recipient 497 with acute or chronic GVHD mouth receiving antifungal drug after 114 days prophylaxis by broth microdilution method). Settings: not given.
Assay type: functional

SMILES | MIC [µg/mL]
OC(Cn1cncn1)(Cn1cncn1)c1ccc(F)cc1F [FLUCONAZOLE] | 32 (≈ 104 µM)

These compounds were tested on Candida albicans (assay: Antifungal activity against Candida albicans isolated from HSCT recipient 928 with acute or chronic GVHD mouth after 112 days prophylaxis by broth microdilution method). Settings: not given.
Assay type: functional

SMILES | MIC [µg/mL]
OC(Cn1cncn1)(Cn1cncn1)c1ccc(F)cc1F [FLUCONAZOLE] | < 0.125

Each compound was assayed on Candida albicans (assay: Antifungal activity against Candida albicans isolated from HSCT recipients with acute or chronic GVHD prior to initiation of fluconazole therapy assessed as maximum MIC by broth microdilution method). Settings: not given.
Assay type: functional

SMILES | MIC [µg/mL]
OC(Cn1cncn1)(Cn1cncn1)c1ccc(F)cc1F [FLUCONAZOLE] | 16

What follows are compounds tested on Nakaseomyces glabratus (assay: Antifungal activity against Candida glabrata isolated from neutropenic subject 1187 with AML or MDS stool after 22 days prophylaxis by broth microdilution method). Settings: 528 h.
Assay type: functional

SMILES | MIC [µg/mL]
OC(Cn1cncn1)(Cn1cncn1)c1ccc(F)cc1F [FLUCONAZOLE] | 16 (≈ 52.2 µM)

These compounds were tested on Pichia kudriavzevii (assay: Antifungal activity against 1 day cultured Candida krusei isolated from neutropenic subject with AML or MDS pharynx receiving antifungal therapy for 19 days after 6 days of prophylaxis by broth microdilution method). Settings: not given.
Assay type: functional

SMILES | MIC [µg/mL]
OC(Cn1cncn1)(Cn1cncn1)c1ccc(F)cc1F [FLUCONAZOLE] | 32 (≈ 104 µM)

Each compound was assayed on Nakaseomyces glabratus (assay: Antifungal activity against 16 days cultured Candida glabrata isolated from HSCT recipient with acute or chronic GVHD mouth receiving antifungal therapy for 31 days after 28 days of prophylaxis by broth microdilution method). Settings: not given.
Assay type: functional

SMILES | MIC [µg/mL]
OC(Cn1cncn1)(Cn1cncn1)c1ccc(F)cc1F [FLUCONAZOLE] | < 2

What follows are compounds tested on Nakaseomyces glabratus (assay: Antifungal activity against 62 days cultured Candida glabrata isolated from HSCT recipient with acute or chronic GVHD mouth receiving antifungal therapy for 143 days after 116 days of prophylaxis by broth microdilution method). Settings: not given.
Assay type: functional

SMILES | MIC [µg/mL]
OC(Cn1cncn1)(Cn1cncn1)c1ccc(F)cc1F [FLUCONAZOLE] | 64 (≈ 209 µM)

The compounds below were run on Candida albicans (assay: Antifungal activity against Candida albicans isolated from HSCT recipients with acute or chronic GVHD receiving posaconazole assessed as maximum MIC by broth microdilution method). Settings: not given.
Assay type: functional

SMILES | MIC [µg/mL]
OC(Cn1cncn1)(Cn1cncn1)c1ccc(F)cc1F [FLUCONAZOLE] | 64

What follows are compounds tested on Candida tropicalis (assay: Antifungal activity against 2 days cultured Candida tropicalis isolated from neutropenic subject with AML or MDS stool receiving antifungal therapy for 45 days after 24 days of prophylaxis by broth microdilution method). Settings: not given.
Assay type: functional

SMILES | MIC [µg/mL]
OC(Cn1cncn1)(Cn1cncn1)c1ccc(F)cc1F [FLUCONAZOLE] | 0.25 (≈ 0.816 µM)

What follows are compounds tested on Nakaseomyces glabratus (assay: Antifungal activity against Candida glabrata isolated from neutropenic subject 1102 with AML or MDS stool after 26 days prophylaxis by broth microdilution method). Settings: 624 h.
Assay type: functional

SMILES | MIC [µg/mL]
OC(Cn1cncn1)(Cn1cncn1)c1ccc(F)cc1F [FLUCONAZOLE] | 4 (≈ 13.1 µM)

Each compound was assayed on Pichia kudriavzevii (assay: Antifungal activity against Candida krusei isolated from HSCT recipients with acute or chronic GVHD receiving fluconazole assessed as maximum MIC by broth microdilution method). Settings: not given.
Assay type: functional

SMILES | MIC [µg/mL]
OC(Cn1cncn1)(Cn1cncn1)c1ccc(F)cc1F [FLUCONAZOLE] | 64

The compounds below were run on Nakaseomyces glabratus (assay: Antifungal activity against Candida glabrata isolated from neutropenic subject 1331 with AML or MDS pharynx receiving antifungal drug after 21 days prophylaxis by broth microdilution method). Settings: 504 h.
Assay type: functional

SMILES | MIC [µg/mL]
OC(Cn1cncn1)(Cn1cncn1)c1ccc(F)cc1F [FLUCONAZOLE] | > 64

Each compound was assayed on Pichia kudriavzevii (assay: Antifungal activity against 16 days cultured Candida krusei isolated from neutropenic subject with AML or MDS stool receiving antifungal therapy for 19 days after 6 days of prophylaxis by broth microdilution method). Settings: not given.
Assay type: functional

SMILES | MIC [µg/mL]
OC(Cn1cncn1)(Cn1cncn1)c1ccc(F)cc1F [FLUCONAZOLE] | 64 (≈ 209 µM)

The compounds below were run on Nakaseomyces glabratus (assay: Antifungal activity against Candida glabrata isolated from HSCT recipients with acute or chronic GVHD receiving posaconazole assessed as maximum MIC by broth microdilution method). Settings: not given.
Assay type: functional

SMILES | MIC [µg/mL]
OC(Cn1cncn1)(Cn1cncn1)c1ccc(F)cc1F [FLUCONAZOLE] | 64

These compounds were tested on Nakaseomyces glabratus (assay: Antifungal activity against Candida glabrata isolated from neutropenic subject 1187 with AML or MDS stool receiving antifungal drug after 22 days prophylaxis by broth microdilution method). Settings: 528 h.
Assay type: functional

SMILES | MIC [µg/mL]
OC(Cn1cncn1)(Cn1cncn1)c1ccc(F)cc1F [FLUCONAZOLE] | 32 (≈ 104 µM)

What follows are compounds tested on Pichia kudriavzevii (assay: Antifungal activity against Candida krusei isolated from HSCT recipients with acute or chronic GVHD prior to initiation of fluconazole therapy assessed as maximum MIC by broth microdilution method). Settings: not given.
Assay type: functional

SMILES | MIC [µg/mL]
OC(Cn1cncn1)(Cn1cncn1)c1ccc(F)cc1F [FLUCONAZOLE] | 64

These compounds were tested on Saccharomyces cerevisiae (assay: Antifungal activity against Saccharomyces cerevisiae isolated from HSCT recipient 513 with acute or chronic GVHD mouth receiving antifungal drug after 112 days prophylaxis by broth microdilution method). Settings: not given.
Assay type: functional

SMILES | MIC [µg/mL]
OC(Cn1cncn1)(Cn1cncn1)c1ccc(F)cc1F [FLUCONAZOLE] | 32 (≈ 104 µM)

Each compound was assayed on Candida tropicalis (assay: Antifungal activity against 2 days cultured Candida tropicalis isolated from neutropenic subject with AML or MDS pharynx receiving antifungal therapy for 45 days after 24 days of prophylaxis by broth microdilution method). Settings: not given.
Assay type: functional

SMILES | MIC [µg/mL]
OC(Cn1cncn1)(Cn1cncn1)c1ccc(F)cc1F [FLUCONAZOLE] | 0.25 (≈ 0.816 µM)

Each compound was assayed on Nakaseomyces glabratus (assay: Antifungal activity against Candida glabrata isolated from HSCT recipients with acute or chronic GVHD prior to initiation of posaconazole therapy by broth microdilution method). Settings: not given.
Assay type: functional

SMILES | MIC50 [µg/mL] | MIC90 [µg/mL]
OC(Cn1cncn1)(Cn1cncn1)c1ccc(F)cc1F [FLUCONAZOLE] | 16 (≈ 52.2 µM) | 64 (≈ 209 µM)

The compounds below were run on Nakaseomyces glabratus (assay: Antifungal activity against 1 day cultured Candida glabrata isolated from neutropenic subject with AML or MDS stool receiving antifungal therapy for 25 days after 3 days of prophylaxis by broth microdilution method). Settings: not given.
Assay type: functional

SMILES | MIC [µg/mL]
OC(Cn1cncn1)(Cn1cncn1)c1ccc(F)cc1F [FLUCONAZOLE] | 16 (≈ 52.2 µM)

What follows are compounds tested on Candida albicans (assay: Antifungal activity against Candida albicans isolated from HSCT recipient 301 with acute or chronic GVHD mouth receiving antifungal drug after 114 days prophylaxis by broth microdilution method). Settings: not given.
Assay type: functional

SMILES | MIC [µg/mL]
OC(Cn1cncn1)(Cn1cncn1)c1ccc(F)cc1F [FLUCONAZOLE] | 0.25 (≈ 0.816 µM)
